Laboratory results taken from publication PMC6591251, “Discovery of potent necroptosis inhibitors targeting RIPK1 kinase activity for the treatment of inflammatory disorder and cancer metastasis” (Cell Death & Disease, 2019).

Key:
Assay in all cases: RBC kinase panel
Assay type in all cases: biochemical
Settings in all cases: ATP 10 μM, Data1, Data2
CDK17/cyclin Y (PCTK2) = target: T1, CDK17/cyclin Y (PCTK2) (Homo sapiens, UniProt Q00537)
T1 construct: purchased Reaction Biology Corporation
Method in brief: (§1)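 Single-point screen: 1 μM compound, duplicate wells, 369-kinase human panel, ATP fixed at 10 μM.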

PAK6 = target: T2, PAK6 (Homo sapiens, UniProt Q9NQU5)
T2 construct: purchased Reaction Biology Corporation
Method in brief: as §1

TEC = target: T3, TEC (Homo sapiens, UniProt P42680)
T3 construct: purchased Reaction Biology Corporation
Method in brief: as §1

STK21/CIT = target: T4, STK21/CIT (Homo sapiens, UniProt O14578)
T4 construct: purchased Reaction Biology Corporation
Method in brief: as §1

CSK = target: T5, CSK (Homo sapiens, UniProt P41240)
T5 construct: purchased Reaction Biology Corporation
Method in brief: as §1

PIM2 = target: T6, PIM2 (Homo sapiens, UniProt Q9P1W9)
T6 construct: purchased Reaction Biology Corporation
Method in brief: as §1

EPHA8 = target: T7, EPHA8 (Homo sapiens, UniProt P29322)
T7 construct: purchased Reaction Biology Corporation
Method in brief: as §1

PKCb2 = target: T8, PKCb2 (Homo sapiens, UniProt P05771)
T8 construct: purchased Reaction Biology Corporation
Method in brief: as §1

FGFR2 = target: T9, FGFR2 (Homo sapiens, UniProt P21802)
T9 construct: purchased Reaction Biology Corporation
Method in brief: as §1

EPHB2 = target: T10, EPHB2 (Homo sapiens, UniProt P29323)
T10 construct: purchased Reaction Biology Corporation
Method in brief: as §1

c-Kit = target: T11, c-Kit (Homo sapiens, UniProt P10721)
T11 construct: purchased Reaction Biology Corporation
Method in brief: as §1

JAK2 = target: T12, JAK2 (Homo sapiens, UniProt O60674)
T12 construct: purchased Reaction Biology Corporation
Method in brief: as §1

BLK = target: T13, BLK (Homo sapiens, UniProt P51451)
T13 construct: purchased Reaction Biology Corporation
Method in brief: as §1

DYRK4 = target: T14, DYRK4 (Homo sapiens, UniProt Q9NR20)
T14 construct: purchased Reaction Biology Corporation
Method in brief: as §1

PIM1 = target: T15, PIM1 (Homo sapiens, UniProt P11309)
T15 construct: purchased Reaction Biology Corporation
Method in brief: as §1

STK33 = target: T16, STK33 (Homo sapiens, UniProt Q9BYT3)
T16 construct: purchased Reaction Biology Corporation
Method in brief: as §1

FRK/PTK5 = target: T17, FRK/PTK5 (Homo sapiens, UniProt P42685)
T17 construct: purchased Reaction Biology Corporation
Method in brief: as §1

STK38/NDR1 = target: T18, STK38/NDR1 (Homo sapiens, UniProt Q15208)
T18 construct: purchased Reaction Biology Corporation
Method in brief: as §1

GSK3a = target: T19, GSK3a (Homo sapiens, UniProt P49840)
T19 construct: purchased Reaction Biology Corporation
Method in brief: as §1

CLK3 = target: T20, CLK3 (Homo sapiens, UniProt P49761)
T20 construct: purchased Reaction Biology Corporation
Method in brief: as §1

CDK1/cyclin E = target: T21, CDK1/cyclin E (Homo sapiens, UniProt P06493)
T21 construct: purchased Reaction Biology Corporation
Method in brief: as §1

CDK5/p25 = target: T22, CDK5/p25 (Homo sapiens, UniProt Q00535)
T22 construct: purchased Reaction Biology Corporation
Method in brief: as §1

ERBB2/HER2 = target: T23, ERBB2/HER2 (Homo sapiens, UniProt P04626)
T23 construct: purchased Reaction Biology Corporation
Method in brief: as §1

STK39/STLK3 = target: T24, STK39/STLK3 (Homo sapiens, UniProt Q9UEW8)
T24 construct: purchased Reaction Biology Corporation
Method in brief: as §1

GSK3b = target: T25, GSK3b (Homo sapiens, UniProt P49841)
T25 construct: purchased Reaction Biology Corporation
Method in brief: as §1

EPHB4 = target: T26, EPHB4 (Homo sapiens, UniProt P54760)
T26 construct: purchased Reaction Biology Corporation
Method in brief: as §1

CDK1/cyclin B = target: T27, CDK1/cyclin B (Homo sapiens, UniProt P06493)
T27 construct: purchased Reaction Biology Corporation
Method in brief: as §1

NLK = target: T28, NLK (Homo sapiens, UniProt Q9UBE8)
T28 construct: purchased Reaction Biology Corporation
Method in brief: as §1

PKCzeta = target: T29, PKCzeta (Homo sapiens, UniProt Q05513)
T29 construct: purchased Reaction Biology Corporation
Method in brief: as §1

CDK18/cyclin Y (PCTK3) = target: T30, CDK18/cyclin Y (PCTK3) (Homo sapiens, UniProt Q07002)
T30 construct: purchased Reaction Biology Corporation
Method in brief: as §1

TIE2/TEK = target: T31, TIE2/TEK (Homo sapiens, UniProt Q02763)
T31 construct: purchased Reaction Biology Corporation
Method in brief: as §1

GRK2 = target: T32, GRK2 (Homo sapiens, UniProt P25098)
T32 construct: purchased Reaction Biology Corporation
Method in brief: as §1

GRK7 = target: T33, GRK7 (Homo sapiens, UniProt Q8WTQ7)
T33 construct: purchased Reaction Biology Corporation
Method in brief: as §1

T14 sequence (Q9NR20 whole entry): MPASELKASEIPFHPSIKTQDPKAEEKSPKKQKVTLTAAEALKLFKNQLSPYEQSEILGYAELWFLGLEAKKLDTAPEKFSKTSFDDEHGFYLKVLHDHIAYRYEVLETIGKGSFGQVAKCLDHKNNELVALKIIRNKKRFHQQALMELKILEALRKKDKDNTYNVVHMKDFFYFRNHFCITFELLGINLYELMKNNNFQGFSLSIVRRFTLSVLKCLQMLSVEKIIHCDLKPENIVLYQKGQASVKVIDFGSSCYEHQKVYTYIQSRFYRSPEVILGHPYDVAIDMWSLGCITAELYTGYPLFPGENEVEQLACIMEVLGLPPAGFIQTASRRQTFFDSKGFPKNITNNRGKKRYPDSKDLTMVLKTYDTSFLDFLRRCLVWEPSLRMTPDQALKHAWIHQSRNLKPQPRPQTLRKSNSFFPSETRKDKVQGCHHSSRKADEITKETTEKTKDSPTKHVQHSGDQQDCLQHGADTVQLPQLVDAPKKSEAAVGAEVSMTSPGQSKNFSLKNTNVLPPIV
T25 sequence (P49841 whole entry): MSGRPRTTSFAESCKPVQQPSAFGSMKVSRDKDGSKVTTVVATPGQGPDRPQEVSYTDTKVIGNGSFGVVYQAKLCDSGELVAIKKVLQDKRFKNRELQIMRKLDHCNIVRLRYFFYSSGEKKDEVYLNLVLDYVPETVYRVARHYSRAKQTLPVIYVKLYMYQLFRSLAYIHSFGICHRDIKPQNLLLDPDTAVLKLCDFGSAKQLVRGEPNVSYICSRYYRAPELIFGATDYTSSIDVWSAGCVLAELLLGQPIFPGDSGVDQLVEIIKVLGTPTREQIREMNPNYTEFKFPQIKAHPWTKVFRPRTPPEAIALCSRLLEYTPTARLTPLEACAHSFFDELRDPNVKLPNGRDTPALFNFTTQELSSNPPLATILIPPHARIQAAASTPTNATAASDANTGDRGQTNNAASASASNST
T5 sequence (P41240 whole entry): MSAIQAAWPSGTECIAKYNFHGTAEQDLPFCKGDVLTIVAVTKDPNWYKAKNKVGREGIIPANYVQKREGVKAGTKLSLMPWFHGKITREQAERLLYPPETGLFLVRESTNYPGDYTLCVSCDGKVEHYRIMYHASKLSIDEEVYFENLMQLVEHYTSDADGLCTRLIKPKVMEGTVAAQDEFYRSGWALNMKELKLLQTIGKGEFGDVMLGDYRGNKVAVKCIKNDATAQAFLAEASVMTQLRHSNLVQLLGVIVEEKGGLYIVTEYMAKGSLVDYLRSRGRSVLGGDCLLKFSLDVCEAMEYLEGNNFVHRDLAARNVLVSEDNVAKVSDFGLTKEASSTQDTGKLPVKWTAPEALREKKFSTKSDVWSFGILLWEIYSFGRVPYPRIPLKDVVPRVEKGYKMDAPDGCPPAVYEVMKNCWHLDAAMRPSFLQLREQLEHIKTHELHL
T28 sequence (Q9UBE8 whole entry): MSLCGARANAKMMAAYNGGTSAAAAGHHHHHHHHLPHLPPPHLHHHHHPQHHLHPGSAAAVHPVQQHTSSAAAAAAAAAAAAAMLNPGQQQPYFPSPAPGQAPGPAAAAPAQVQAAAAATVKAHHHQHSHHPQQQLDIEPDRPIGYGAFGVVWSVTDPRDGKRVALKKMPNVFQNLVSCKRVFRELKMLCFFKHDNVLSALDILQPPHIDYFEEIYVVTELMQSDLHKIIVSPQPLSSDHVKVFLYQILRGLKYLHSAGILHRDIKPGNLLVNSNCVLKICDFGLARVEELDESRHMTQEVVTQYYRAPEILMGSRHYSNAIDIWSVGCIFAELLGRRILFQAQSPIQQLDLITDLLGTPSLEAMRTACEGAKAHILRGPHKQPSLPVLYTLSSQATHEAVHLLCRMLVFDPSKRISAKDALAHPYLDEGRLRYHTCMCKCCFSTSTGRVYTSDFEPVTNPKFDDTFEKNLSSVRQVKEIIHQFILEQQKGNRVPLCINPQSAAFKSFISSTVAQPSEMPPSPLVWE
T20 sequence (P49761 whole entry): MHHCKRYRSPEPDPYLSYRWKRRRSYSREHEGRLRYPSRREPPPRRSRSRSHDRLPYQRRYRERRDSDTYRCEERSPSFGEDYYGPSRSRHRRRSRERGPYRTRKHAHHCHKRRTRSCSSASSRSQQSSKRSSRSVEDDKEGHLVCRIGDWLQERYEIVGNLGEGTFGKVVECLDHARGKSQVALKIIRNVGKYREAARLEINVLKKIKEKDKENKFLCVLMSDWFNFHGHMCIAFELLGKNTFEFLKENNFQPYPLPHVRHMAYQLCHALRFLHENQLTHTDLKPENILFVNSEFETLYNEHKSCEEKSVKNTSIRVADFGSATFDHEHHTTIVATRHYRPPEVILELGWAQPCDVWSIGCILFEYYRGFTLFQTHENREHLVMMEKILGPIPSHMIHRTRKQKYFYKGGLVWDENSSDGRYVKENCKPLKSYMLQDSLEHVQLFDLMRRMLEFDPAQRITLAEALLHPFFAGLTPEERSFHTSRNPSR
T8 sequence (P05771 1-673 isoform P05771-2): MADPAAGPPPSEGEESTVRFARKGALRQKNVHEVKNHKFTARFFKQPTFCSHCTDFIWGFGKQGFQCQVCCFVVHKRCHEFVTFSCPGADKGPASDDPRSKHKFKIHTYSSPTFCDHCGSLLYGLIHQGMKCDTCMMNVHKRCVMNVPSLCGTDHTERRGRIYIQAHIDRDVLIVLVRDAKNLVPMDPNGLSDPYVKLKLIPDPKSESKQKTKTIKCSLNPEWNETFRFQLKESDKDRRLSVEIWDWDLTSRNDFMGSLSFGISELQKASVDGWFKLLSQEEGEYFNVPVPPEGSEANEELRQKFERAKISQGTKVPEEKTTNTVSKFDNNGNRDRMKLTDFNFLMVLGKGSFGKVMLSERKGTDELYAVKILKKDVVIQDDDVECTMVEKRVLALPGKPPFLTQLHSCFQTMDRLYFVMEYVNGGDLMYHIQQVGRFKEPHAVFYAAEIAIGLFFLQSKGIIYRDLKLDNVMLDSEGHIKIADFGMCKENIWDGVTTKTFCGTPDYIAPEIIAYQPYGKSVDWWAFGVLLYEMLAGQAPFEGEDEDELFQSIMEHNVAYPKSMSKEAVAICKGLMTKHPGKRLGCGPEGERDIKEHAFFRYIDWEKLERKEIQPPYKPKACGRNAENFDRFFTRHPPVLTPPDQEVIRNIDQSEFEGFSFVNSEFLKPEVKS
T30 sequence (Q07002 whole entry): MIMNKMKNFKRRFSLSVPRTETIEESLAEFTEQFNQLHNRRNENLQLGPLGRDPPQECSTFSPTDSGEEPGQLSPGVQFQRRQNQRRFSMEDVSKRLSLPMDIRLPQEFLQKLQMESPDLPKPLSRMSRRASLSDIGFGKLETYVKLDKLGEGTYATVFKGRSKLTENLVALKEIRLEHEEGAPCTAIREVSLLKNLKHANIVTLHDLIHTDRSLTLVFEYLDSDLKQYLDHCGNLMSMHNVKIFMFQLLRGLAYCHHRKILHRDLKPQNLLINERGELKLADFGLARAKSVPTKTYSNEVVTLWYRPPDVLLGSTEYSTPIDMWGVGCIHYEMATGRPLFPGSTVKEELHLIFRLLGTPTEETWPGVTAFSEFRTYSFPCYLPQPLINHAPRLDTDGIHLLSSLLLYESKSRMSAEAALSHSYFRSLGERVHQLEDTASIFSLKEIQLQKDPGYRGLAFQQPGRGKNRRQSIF
T30 sequence (Q8ND76 whole entry partner): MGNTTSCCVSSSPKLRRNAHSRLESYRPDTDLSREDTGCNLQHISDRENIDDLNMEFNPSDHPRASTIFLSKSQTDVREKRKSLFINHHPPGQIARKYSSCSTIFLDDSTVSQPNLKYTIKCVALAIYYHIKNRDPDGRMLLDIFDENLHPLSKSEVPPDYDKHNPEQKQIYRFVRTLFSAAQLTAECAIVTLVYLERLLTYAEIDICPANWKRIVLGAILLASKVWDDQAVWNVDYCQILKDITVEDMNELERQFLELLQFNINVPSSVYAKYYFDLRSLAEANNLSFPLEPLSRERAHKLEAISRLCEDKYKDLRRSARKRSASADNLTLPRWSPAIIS
T13 sequence (P51451 whole entry): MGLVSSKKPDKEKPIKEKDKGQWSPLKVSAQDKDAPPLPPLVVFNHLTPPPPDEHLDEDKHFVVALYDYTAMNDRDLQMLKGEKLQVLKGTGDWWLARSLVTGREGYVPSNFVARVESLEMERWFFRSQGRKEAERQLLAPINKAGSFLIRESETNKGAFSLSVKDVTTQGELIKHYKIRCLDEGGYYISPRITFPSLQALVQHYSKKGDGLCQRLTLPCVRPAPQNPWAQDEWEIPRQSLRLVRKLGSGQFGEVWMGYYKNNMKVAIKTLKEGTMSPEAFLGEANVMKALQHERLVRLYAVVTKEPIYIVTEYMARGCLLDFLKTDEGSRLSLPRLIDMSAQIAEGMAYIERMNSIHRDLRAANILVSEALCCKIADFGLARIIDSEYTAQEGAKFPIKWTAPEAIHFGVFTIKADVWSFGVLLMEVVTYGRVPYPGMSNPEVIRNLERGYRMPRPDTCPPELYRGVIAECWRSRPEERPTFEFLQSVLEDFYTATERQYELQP
T6 sequence (Q9P1W9 whole entry): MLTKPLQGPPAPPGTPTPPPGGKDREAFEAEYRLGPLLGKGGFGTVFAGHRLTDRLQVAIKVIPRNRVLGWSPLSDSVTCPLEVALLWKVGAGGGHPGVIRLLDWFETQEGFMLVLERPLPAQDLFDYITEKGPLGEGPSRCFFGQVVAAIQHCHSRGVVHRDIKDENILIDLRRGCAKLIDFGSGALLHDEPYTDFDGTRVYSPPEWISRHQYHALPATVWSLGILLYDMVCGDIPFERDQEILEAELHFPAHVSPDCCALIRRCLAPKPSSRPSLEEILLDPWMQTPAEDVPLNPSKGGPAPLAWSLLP

Compound: CC(=O)Nc1nc2ccc(-c3cnc(C)c(NC(=O)OC4CCCCC4)c3)cc2s1 [PK68, cyclohexyl (5-(2-acetamidobenzo[d]thiazol-6-yl)-2-methylpyridin-3-yl)carbamate]
- Activity% (CDK17/cyclin Y (PCTK2); 1 μM): 77.31%
- activity at 1 µM (CDK17/cyclin Y (PCTK2)): 79%
- Activity% (PAK6; 1 μM): 92.62%
- activity at 1 µM (PAK6): 93.6%
- Activity% (TEC; 1 μM): 97.93%
- activity at 1 µM (TEC): 99%
- Activity% (STK21/CIT; 1 μM): 121.90%
- activity at 1 µM (STK21/CIT): 125%
- Activity% (CSK; 1 μM): 91.36%
- activity at 1 µM (CSK): 92.8%
- Activity% (PIM2; 1 μM): 111.50%
- activity at 1 µM (PIM2): 114%
- Activity% (EPHA8; 1 μM): 99.05%
- activity at 1 µM (EPHA8): 100%
- Activity% (PKCb2; 1 μM): 98.56%
- activity at 1 µM (PKCb2): 100%
- Activity% (FGFR2; 1 μM): 88.90%
- activity at 1 µM (FGFR2): 91%
- Activity% (EPHB2; 1 μM): 101.30%
- activity at 1 µM (EPHB2): 102%
- Activity% (c-Kit; 1 μM): 75.47%
- activity at 1 µM (c-Kit): 77.5%
- Activity% (JAK2; 1 μM): 96.04%
- activity at 1 µM (JAK2): 98.2%
- Activity% (BLK; 1 μM): 93.58%
- activity at 1 µM (BLK): 95.4%
- Activity% (DYRK4; 1 μM): 102.24%
- activity at 1 µM (DYRK4): 102%
- Activity% (PIM1; 1 μM): 100.16%
- activity at 1 µM (PIM1): 102%
- Activity% (STK33; 1 μM): 91.58%
- activity at 1 µM (STK33): 91.6%
- Activity% (FRK/PTK5; 1 μM): 97.78%
- activity at 1 µM (FRK/PTK5): 101%
- Activity% (STK38/NDR1; 1 μM): 96.05%
- activity at 1 µM (STK38/NDR1): 98.9%
- Activity% (GSK3a; 1 μM): 101.33%
- activity at 1 µM (GSK3a): 102%
- Activity% (CLK3; 1 μM): 99.85%
- activity at 1 µM (CLK3): 101%
- Activity% (CDK1/cyclin E; 1 μM): 101.92%
- activity at 1 µM (CDK1/cyclin E): 102%
- Activity% (CDK5/p25; 1 μM): 92.68%
- activity at 1 µM (CDK5/p25): 94.1%
- Activity% (ERBB2/HER2; 1 μM): 97.32%
- activity at 1 µM (ERBB2/HER2): 99.1%
- Activity% (STK39/STLK3; 1 μM): 92.54%
- activity at 1 µM (STK39/STLK3): 95.8%
- Activity% (GSK3b; 1 μM): 97.24%
- activity at 1 µM (GSK3b): 98.1%
- Activity% (EPHB4; 1 μM): 99.18%
- activity at 1 µM (EPHB4): 101%
- Activity% (CDK1/cyclin B; 1 μM): 97.32%
- activity at 1 µM (CDK1/cyclin B): 97.6%
- Activity% (NLK; 1 μM): 98.89%
- activity at 1 µM (NLK): 103%
- Activity% (PKCzeta; 1 μM): 102.04%
- activity at 1 µM (PKCzeta): 103%
- Activity% (CDK18/cyclin Y (PCTK3); 1 μM): 106.96%
- activity at 1 µM (CDK18/cyclin Y (PCTK3)): 107%
- Activity% (TIE2/TEK; 1 μM): 82.66%
- activity at 1 µM (TIE2/TEK): 83.4%
- Activity% (GRK2; 1 μM): 99.02%
- activity at 1 µM (GRK2): 101%
- Activity% (GRK7; 1 μM): 95.94%
- activity at 1 µM (GRK7): 96.5%
